Measured values: US20110039825A1, “LIGANDS OF ALPHA-ADRENOCEPTORS, DOPAMINE, HISTAMINE, IMIDAZOLINE AND SEROTONIN RECEPTORS AND THEIR USE” (Alla Chem, LLC, priority 2007, published 2011)
Blank lines part the entries; values can stand above or below the molecule they belong to.

What was measured:
[1] = system: imidazoline receptor I2; test: radioligand binding to imidazoline receptor I2 ([3H] Idazoxan); parameters: species or system rat; settings: 10 μM ligand
Protocol: Determination of investigated compounds' binding to imidazoline I2 receptor is carried out according to the method described in [Brown C M, MacKinnon A C, McGrath J C, Spedding M and Kilpatrick A T, a2-Adrenoceptor subtypes and imidazoline-like binding in the rat brain. Br J. Pharmacol. 99:803-809, 1990]. […] Idazoxan is used as positive control.

[2] = target: T1, recombinant human 5-HT2B receptor (Homo sapiens, UniProt P41595); test: radioligand binding to serotonin receptor 5-HT2B ([3H] Lysergic acid diethylamide); settings: for 5-HT2B % inhibition: 10 μM ligand
T1 construct: expressed in transfected cells; host or cells: CHO-K1
T1 sequence (P41595 whole entry): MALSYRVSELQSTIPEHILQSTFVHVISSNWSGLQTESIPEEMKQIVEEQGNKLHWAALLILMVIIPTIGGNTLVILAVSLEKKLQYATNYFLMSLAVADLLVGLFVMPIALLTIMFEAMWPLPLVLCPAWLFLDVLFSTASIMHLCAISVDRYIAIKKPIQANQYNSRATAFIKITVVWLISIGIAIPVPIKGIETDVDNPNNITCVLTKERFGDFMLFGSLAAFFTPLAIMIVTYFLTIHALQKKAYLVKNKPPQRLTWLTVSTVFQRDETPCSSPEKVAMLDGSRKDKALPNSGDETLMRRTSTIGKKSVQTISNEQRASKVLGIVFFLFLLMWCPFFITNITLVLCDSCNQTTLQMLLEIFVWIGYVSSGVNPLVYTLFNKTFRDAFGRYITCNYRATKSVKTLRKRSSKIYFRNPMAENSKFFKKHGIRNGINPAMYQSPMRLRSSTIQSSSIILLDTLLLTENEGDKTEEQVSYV

[3] = target: T2, recombinant human 5-HT2C receptor (Homo sapiens, UniProt P28335); test: radioligand binding to serotonin receptor 5-HT2C ([3H] Mesulergine); settings: 10 μM ligand
T2 construct: expressed in transfected cells; host or cells: CHO-K1
T2 sequence (P28335 33-458): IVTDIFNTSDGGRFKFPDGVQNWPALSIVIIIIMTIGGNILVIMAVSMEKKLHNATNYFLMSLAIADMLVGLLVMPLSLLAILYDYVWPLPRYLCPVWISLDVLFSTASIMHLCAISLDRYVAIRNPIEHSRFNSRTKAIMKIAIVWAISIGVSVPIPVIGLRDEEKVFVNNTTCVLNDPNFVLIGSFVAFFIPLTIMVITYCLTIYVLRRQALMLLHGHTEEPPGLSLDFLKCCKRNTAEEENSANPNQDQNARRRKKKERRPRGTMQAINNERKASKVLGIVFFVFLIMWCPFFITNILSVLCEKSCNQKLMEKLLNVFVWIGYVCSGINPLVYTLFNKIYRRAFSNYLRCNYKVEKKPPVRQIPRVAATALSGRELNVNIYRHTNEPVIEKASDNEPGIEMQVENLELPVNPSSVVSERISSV
Source text: J. Neurochem. 69: 1449-1458, 1997]. […] SB242084 is used as positive control.

[4] = target: T3, recombinant human 5-HT1A (Homo sapiens, UniProt P08908); test: radioligand binding to serotonin receptor 5-HT1A ([3H] 8-OH-DPAT); settings: 10 μM ligand
T3 construct: expressed in transfected cells; host or cells: CHO
T3 sequence (P08908 1-422): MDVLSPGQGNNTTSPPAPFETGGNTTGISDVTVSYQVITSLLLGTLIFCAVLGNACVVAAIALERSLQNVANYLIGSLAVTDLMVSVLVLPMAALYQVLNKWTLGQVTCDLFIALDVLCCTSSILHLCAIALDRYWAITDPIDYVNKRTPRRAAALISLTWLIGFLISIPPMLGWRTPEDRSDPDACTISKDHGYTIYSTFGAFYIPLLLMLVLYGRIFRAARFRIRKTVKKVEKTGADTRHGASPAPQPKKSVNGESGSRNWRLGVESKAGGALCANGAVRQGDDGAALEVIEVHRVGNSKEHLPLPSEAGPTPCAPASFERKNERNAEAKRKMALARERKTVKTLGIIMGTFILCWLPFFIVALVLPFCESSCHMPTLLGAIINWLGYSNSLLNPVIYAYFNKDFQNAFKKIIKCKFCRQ
Source text: J Pharmacol Exp Ther. 306(1): 301-309, 2003]. […] Metergoline is used as positive control.

[5] = target: T4, adrenergic receptor α1A (Rattus norvegicus, UniProt P43140); test: radioligand binding to adrenergic receptor α1A ([3H] Prazosin)
T4 construct: membrane species from rat submaxillary glands (rat of Wistar breed) are prepared; from tissue; host or cells: rat (Wistar) submaxillary gland membranes
T4 sequence (P43140 1-466): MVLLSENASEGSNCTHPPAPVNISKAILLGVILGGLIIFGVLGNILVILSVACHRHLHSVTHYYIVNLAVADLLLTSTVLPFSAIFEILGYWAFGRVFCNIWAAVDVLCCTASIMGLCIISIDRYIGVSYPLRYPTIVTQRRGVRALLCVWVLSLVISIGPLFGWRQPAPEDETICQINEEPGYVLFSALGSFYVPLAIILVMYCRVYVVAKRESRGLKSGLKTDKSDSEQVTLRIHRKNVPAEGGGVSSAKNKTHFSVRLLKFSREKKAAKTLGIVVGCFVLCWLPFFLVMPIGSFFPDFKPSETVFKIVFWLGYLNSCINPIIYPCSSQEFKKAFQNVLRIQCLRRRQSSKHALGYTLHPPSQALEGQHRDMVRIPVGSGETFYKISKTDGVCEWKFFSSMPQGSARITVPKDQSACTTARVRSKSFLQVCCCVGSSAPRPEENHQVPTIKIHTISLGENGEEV
Protocol: Determination of investigated compounds' binding to α1A receptor was carried out according to the method described in [Michel A D, Loury D N and Whiting R l. Identification of a single α1A-adrenoceptor corresponding to the α1A-subtype in rat submaxillary gland. Br J. Pharmacol. 98:883-889, 1989]. […] Prazosin is used as positive control.

[6] = target: T5, adrenergic receptor α1B (Rattus norvegicus, UniProt P15823); test: radioligand binding to adrenergic receptor α1B ([3H] Prazosin)
T5 construct: membrane species from rat liver (rat of Wistar breed) are prepared; from tissue; host or cells: rat (Wistar) liver membranes
T5 sequence (P15823 1-515): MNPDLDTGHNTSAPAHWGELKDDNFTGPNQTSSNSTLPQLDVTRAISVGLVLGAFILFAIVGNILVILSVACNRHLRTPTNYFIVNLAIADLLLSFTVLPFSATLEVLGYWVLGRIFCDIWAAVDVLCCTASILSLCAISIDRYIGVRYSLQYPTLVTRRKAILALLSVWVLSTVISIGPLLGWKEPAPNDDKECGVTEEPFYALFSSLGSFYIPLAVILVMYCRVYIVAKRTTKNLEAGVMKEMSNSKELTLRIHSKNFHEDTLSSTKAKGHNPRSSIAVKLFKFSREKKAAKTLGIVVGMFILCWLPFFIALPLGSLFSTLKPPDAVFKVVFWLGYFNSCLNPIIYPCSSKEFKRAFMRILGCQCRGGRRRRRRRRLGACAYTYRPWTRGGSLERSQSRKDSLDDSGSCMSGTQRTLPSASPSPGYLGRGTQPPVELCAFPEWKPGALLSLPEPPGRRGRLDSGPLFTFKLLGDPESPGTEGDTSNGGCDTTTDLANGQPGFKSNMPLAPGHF
Source text: Species heterogeneity of hepatic α1A-, α1B-, and α1C-subtypes. Biochem Biophys Res Commun. 186:760-7676 1992]. […] Prazosin is used as positive control.

[7] = target: T6, human α1D receptor (Homo sapiens, UniProt P25100); test: radioligand binding to adrenergic receptor α1D ([3H] Prazosin)
T6 construct: expressed in transfected cells; host or cells: HEK-293
T6 sequence (P25100 1-572): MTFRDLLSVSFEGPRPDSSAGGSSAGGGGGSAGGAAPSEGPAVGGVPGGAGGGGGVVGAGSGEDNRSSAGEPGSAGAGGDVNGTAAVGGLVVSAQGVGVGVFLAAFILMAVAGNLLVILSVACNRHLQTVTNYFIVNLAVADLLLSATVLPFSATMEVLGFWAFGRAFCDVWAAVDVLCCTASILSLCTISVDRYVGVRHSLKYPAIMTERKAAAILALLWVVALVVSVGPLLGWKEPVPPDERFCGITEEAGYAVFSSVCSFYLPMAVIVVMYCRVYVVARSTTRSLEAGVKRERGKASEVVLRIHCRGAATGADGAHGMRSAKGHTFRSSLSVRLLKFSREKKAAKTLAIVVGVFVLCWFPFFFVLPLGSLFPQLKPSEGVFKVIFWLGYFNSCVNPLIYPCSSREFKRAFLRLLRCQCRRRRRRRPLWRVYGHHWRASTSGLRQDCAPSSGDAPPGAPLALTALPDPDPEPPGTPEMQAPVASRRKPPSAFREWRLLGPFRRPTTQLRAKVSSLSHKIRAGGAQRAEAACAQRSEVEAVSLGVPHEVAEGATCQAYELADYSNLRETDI
Source text: 6-C. […] For this purpose sDNA of human α1D receptor is expressed in HEK-293 cells, as it was described in [T L Theroux, T A Esbenshade, R D Peavy and K P Minneman. Coupling efficiencies of human alpha 1-adrenergic receptor subtypes: titration of receptor density and responsiveness with inducible and repressible expression vectors. Mol. Pharmacol.; 50: 1376-1387, 1996]. […] Prazosin is used as positive control.

[8] = target: T7, human α2A receptor (Homo sapiens, UniProt P08913); test: radioligand binding to adrenergic receptor α2A ([3H] MK-912)
T7 construct: expressed in transfected cells; host or cells: Sf9
T7 sequence (P08913 1-465): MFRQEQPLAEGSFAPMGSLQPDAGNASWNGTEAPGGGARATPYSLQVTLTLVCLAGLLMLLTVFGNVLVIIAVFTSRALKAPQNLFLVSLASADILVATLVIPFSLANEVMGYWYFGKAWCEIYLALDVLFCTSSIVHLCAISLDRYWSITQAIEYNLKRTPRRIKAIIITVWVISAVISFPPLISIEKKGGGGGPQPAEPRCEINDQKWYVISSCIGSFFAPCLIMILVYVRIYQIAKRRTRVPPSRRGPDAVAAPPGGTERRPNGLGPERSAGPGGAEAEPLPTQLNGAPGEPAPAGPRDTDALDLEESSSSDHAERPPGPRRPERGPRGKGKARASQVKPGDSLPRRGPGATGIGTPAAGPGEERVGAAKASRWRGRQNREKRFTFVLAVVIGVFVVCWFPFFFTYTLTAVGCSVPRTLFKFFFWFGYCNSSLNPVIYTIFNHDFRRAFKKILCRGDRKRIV
Source text: J Pharmacol ExpTher. […] Yohimbine is used as positive control.

[9] = target: T8, human 5-HT7 receptor (Homo sapiens, UniProt P34969); test: radioligand binding to serotonin receptor 5-HT7 ([3H] Lysergic acid diethylamide); settings: 10 μM ligand
T8 construct: expressed in transfected cells; host or cells: CHO
T8 sequence (P34969 whole entry): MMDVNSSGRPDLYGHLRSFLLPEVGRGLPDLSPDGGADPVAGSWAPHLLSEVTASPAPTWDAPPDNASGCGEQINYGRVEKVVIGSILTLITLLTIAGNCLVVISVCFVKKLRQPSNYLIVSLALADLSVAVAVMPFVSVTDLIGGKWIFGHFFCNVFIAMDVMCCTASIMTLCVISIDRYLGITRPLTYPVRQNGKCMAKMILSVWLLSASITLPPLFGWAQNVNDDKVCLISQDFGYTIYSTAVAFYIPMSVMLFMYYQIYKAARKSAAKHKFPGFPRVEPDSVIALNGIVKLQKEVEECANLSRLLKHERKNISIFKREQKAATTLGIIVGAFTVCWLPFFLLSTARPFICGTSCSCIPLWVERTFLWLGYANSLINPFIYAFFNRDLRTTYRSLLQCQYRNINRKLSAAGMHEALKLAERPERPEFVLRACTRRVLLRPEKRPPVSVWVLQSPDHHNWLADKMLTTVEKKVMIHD
Source text: For this purpose sDNA of human 5-HT7 receptor is expressed in CHO cells as it was described in [Shen Y, Monsma F J Jr, Metcalf M A, Jose P A, Hamblin M W, and Sibley DR. […] J. Biol. Chem. 1993, 268, 18200-18204]. […] J. Pharmacol. Exp. Ther. 1994, 268:1403-1410]. […] Methiothepin is used as positive control.

[10] = target: T9, recombinant human 5-HT6 receptor (Homo sapiens, UniProt P50406); test: radioligand binding to serotonin receptor 5-HT6 ([3H] Lysergic acid diethylamide); settings: 10 μM ligand
T9 construct: expressed in transfected cells; host or cells: HeLa
T9 sequence (P50406 whole entry): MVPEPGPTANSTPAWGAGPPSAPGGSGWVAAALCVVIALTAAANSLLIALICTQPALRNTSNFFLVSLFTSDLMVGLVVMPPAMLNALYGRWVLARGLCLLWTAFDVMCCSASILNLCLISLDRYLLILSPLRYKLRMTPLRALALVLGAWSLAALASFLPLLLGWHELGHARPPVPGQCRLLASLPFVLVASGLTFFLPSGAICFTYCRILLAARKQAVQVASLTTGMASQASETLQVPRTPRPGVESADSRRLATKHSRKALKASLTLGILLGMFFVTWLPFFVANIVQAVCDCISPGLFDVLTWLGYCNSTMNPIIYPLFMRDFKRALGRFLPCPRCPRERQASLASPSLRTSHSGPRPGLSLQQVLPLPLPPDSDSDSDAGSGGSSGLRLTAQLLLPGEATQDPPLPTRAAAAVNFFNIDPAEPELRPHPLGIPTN
Source text: Mol. Pharmacol. 43:320-327, 1993]. […] Methiothepin is used as positive control.

SMILES: Cc1ccc2c(c1)[C@@H]1CN(C)CCC[C@@H]1N2CCc1cccnc1.Cl.Cl.Cl (relative stereo) [1.6.1(1)•3HCl]
imidazoline I2 receptor % inhibition [1]: 80%

SMILES: CN1CCc2c(c3cc(F)ccc3n2C#Cc2ccccc2)C1 [1.1(2)]
5-HT2B % inhibition [2]: 92%
5-HT2C % inhibition [3]: 100%

SMILES: Cc1ccc2c(c1)c1c(n2CCc2ccccc2)CCN(C)C1.Cl [1.1.2(1-2)•HCl, 2,8-dimethyl-5-phenethyl-1,2,3,4-tetrahydro-1H-pyrido[4,3-b]indole hydrochloride]
5-HT1A % inhibition [4]: 84%
IC50 [2]: 0.0166 µM
Ki [2]: 0.0106 µM
nH 5-HT2B [2]: 0.868
5-HT2B % inhibition [2]: 100%
imidazoline I2 receptor % inhibition [1]: 93%

IC50 [5]: 0.0467 µM
Ki [5]: 0.0189 µM
IC50 [6]: 0.017 µM
Ki [6]: 0.0094 µM
IC50 [7]: 0.0615 µM
Ki [7]: 0.0302 µM
IC50 [8]: 0.00472 µM
Ki [8]: 0.00177 µM
SMILES: Cc1ccc(CCn2c3c(c4cc(C)ccc42)CN(C)CC3)cc1 [1.1.2(1-3), 2,8-dimethyl-5-[2-(4-methylphenyl)-ethyl]-1,2,3,4-tetrahydro-1H-pyrido[4,3-b]indole]

5-HT7 % inhibition [9]: 94%
SMILES: CN1CCc2c(c3cc(C(F)(F)F)ccc3n2CCc2ccccc2)C1.Cl [1.1.2(1-7)•HCl, 2-methyl-8-trifluoromethyl-5-phenethyl-1,2,3,4-tetrahydro-1H-pyrido[4,3-b]indole]

SMILES: CN1CCc2c(c3cc(F)ccc3n2CC(O)c2ccccc2)C1 (stereo not shown) [1.1.2(1-9)]
5-HT2B % inhibition [2]: 50%
5-HT2C % inhibition [3]: 89%

SMILES: Cc1ccc2c(c1)c1c(n2CC(O)c2ccccc2)CCN(C)C1 (stereo not shown) [1.1.2(1-10), 2,8-dimethyl-5-[(2-phenyl-2-hydroxy)ethyl]-1,2,3,4-tetrahydro-1H-pyrido[4,3-b]indole]
5-HT2B % inhibition [2]: 79%
5-HT2C % inhibition [3]: 96%

5-HT1A % inhibition [4]: 57%
5-HT6 % inhibition [10]: 108%
5-HT7 % inhibition [9]: 100%
SMILES: COc1ccc(CCn2c3c(c4cc(C)ccc42)CN(C)CC3)cc1.Cl [1.1.2(1-14)•HCl]
